Test results published in patent US20250115612A1, “CERTAIN 2,5-DIAZABICYCLO[4.2.0]OCTANES AND OCTAHYDROFURO[3,4-B]PYRAZINES AS GLP-1 RECEPTOR MODULATORS” (ASTRAZENECA AB, priority 2021, published 2025).

Key:
[1] = molecular target: T1, human GLP-1R receptor (Homo sapiens, UniProt P43220, L260F); test: CHOK1 GLP-1R cAMP assay (HTRF); type: cell-based; settings: CHO-K1 cells stably expressing human GLP-1R
T1 construct: expressed in transfected cells; host or cells: CHO-K1 (ATCC CCL-61)
Procedure: A cell line stably expressing the human GLP-1R receptor (NM_002062.5, including the naturally-occurring variant Leu260Phe) in a CHO-K1 (ATCC® CCL-61™) was used for assay.
GLP-1 receptor mediated agonist activity was determined in a cell-based assay measuring cyclic adenosine monophosphate (cAMP) levels in cells using Homogeneous Time-Resolved Fluorescence (HTRF) cAMP detection kit (CisBio catalog #62AM4PEC, cAMP Gs Dynamic range kit). The cAMP detection method is based on a competitive immunoassay, in which cAMP produced by the cells and cAMP labeled with the dye d2 compete for binding to a Europium-Cryptate-labeled anti-cAMP antibody. The specific HTRF signal is inversely proportional to the concentration of cAMP.
Compounds were added to individual well in 384 well-assay plates (Greiner #784076) using an Echo (LabCyte) dispenser from 10 mM stocks. Varying concentration of compounds were added to wells, and DMSO was used to normalize each well to a volume of 100 nL. A dose response curve of GLP-1(7-36)NH2 (Bachem H-6795) was included in each run. 5 μL of cAMP concentration response standards are applied in specified wells in the assay plates. Cryo-preserved cells are thawed and resuspended in assay buffer pre-heated to 37° C. (20 mM 2-[4-(2-hydroxyethyl)piperazin-1-yl]ethanesulfonic acid (HEPES) pH 7.4, lx Hank's Balanced Salt Solution (HBSS, Life Technologies #14065) supplemented with 0.1% (w/v) bovine serum albumin (Sigma, A-7030)). Cells were centrifuged at 250*g for 5 min at rt, and resuspended in room tempered assay buffer to a final density of 0.16*10^6 cell/mL, to deliver 800 cells/well. 5 μL of assay buffer with 1 mM 3-isobutyl-1-methylxanthin (IBMX; Sigma cat I-7018) was dispensed per well in assay plates using a multidrop combi (Thermo Scientific) subsequently 5 μL of cell suspension was distributed to relevant wells in the assay using a multidrop dispenser. Assay plates were incubated 20 min at rt.
Detection reagents, Europium-Cryptate-labeled anti-cAMP antibody and cAMP labeled with the dye d2, are diluted in lysis buffer, provided by the manufacturer. 5 μL of each detection reagent is supplemented to each assay well using a multidrop dispenser. Assay plates are incubated in the dark for at least one h. The HTRF signal is measured using the HTRF module (excitation: 337 nm, emission A: 665 nm and emission B: 620 nm) in Pherastar FSX (BMG Labtech).
Raw data were converted to pM cAMP using the cAMP standard curve included in each run. Converted data were further analyzed in Genedata Screener (Genedata) and EC50 determinations were made from agonist dose-response curves analyzed with a curve fitting program using a 4-parameter logistic dose response equation (Equation y=A+((B−A)/1+((C/x)^D))) where A is no stimulation, B is full stimulation, C is the EC50 and D is the Hill slope). The percent effect was determined relative to a saturating concentration of a full GLP-1R agonist (GLP-1(7-36)NH2 has 100% effect in this assay setup).

[2] = molecular target: T2, GLP-1R (Homo sapiens, UniProt P43220); test: EndoC cAMP accumulation assay (HTRF, EndoC-βH1 cells); type: cell-based; settings: EndoC-βH1 human pancreatic β cell line
T2 construct: host or cells: EndoC-βH1
T2 sequence (P43220 24-463): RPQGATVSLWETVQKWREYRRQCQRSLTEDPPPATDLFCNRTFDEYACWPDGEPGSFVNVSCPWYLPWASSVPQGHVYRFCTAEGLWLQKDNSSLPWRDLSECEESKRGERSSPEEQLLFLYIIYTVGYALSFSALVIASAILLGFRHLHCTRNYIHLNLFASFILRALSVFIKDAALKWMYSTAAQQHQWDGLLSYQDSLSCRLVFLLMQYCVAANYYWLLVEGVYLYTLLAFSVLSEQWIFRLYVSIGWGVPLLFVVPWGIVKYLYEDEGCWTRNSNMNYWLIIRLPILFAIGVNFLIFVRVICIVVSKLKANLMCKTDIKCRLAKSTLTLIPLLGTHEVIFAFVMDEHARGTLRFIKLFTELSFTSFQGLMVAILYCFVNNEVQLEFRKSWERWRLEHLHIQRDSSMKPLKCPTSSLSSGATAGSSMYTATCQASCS
Description: EndoC cAMP Accumulation Assay
A HTRF cAMP assay (cAMP Gs dynamic kit; CisoBio Cat #62AM4PEJ) was used to identify agonists of GLP-1R in a pancreatic insulinoma cell line (EndoC-PH1). […] EndoC-βH1 cells have detectable GLP-1R messenger ribonucleic acid (mRNA) as detected by quantitative polymerase chain reaction (qPCR). […] The EndoC-βH1 cell line is a valid model of human beta cells and applicable for screenings to identify novel drug target candidates (Mol. Metab., 2018, 8, 144-157). CisBio HTRF cAMP kits are based on a competitive immunoassay using cryptate-labelled anti-cAMP antibody and d2-labeled cAMP. The detection kit is intended for the direct quantitative determination of cAMP. The specific signal (i.e. energy transfer) is inversely proportional to the concentration of cAMP in the standard or sample. Test compounds (10 mM in DMSO) were diluted into assay buffer (HBSS (Sigma #H8264) supplemented with 25 mM HEPES (Gibco #15630, pH 7.4), 0.1% BSA (Sigma #A3059) and 0.5 mM IBMX (Sigma #I7018) included fresh on the day of the assay) into 96 well U-bottom plates (Greiner #650201). Diluted compounds were transferred to ECHO source polypropelene plates (Labcyte #P-05525) and dose response curves were dispensed acoustically using ECHO 550 into black shallow-well u-bottom 384-well HTRF Assay Plates (Corning 4514).
Cryovials of EndoC-H1 (supplied at 1×10e^7 cells/vial) were used directly for screening. The cryovials and were removed from N2(l) and thawed rapidly in a 37° C. water bath. The cells were resuspended in assay buffer and centrifuged at 300 g for 5 min. Cells were resuspended in assay buffer at the appropriate concentration, typically at 12e5 cells per mL (3000 cells per well, dependent on cell batch) and 2.5 μL diluted cells were added to all wells of destination plate by Multidrop combi reagent dispenser (Thermofisher). The plates were incubated at rt for 30 min. The assay was stopped by adding 2.5 μL anti-cAMP cryptate solution to all wells and 2.5 μL cAMP-d2 solution (both diluted 1:20 in lysis buffer) to columns 1-22 by Combi drop. A volume of 2.5 μL cAMP-d2 solution was added to wells E23 to P24 and 2.5 μL lysis buffer added to wells A23 to D24 by multichannel pipette. The plates were incubated at rt for 1 h and read on an Envision plate reader using excitation wavelength of 320 nm and emission of 590 nm and 660 nm.
Raw data from Envision is converted to % DeltaF according to the manufacturer's instructions. Dose response curves are analysed via 4-Parameter Logistical Analysis and assay plate Z′ values obtained. Samples are graphed as percentage (%) activation plots compared to GIP (1-42, Bachem H-5645) with assay window defined by negative control as basal cell cAMP levels and positive control are defined by maximum GIP (82.5 nM) signal. GLP-1 (7-36 amide, Bachem H-6795) dose response curve was included on all plates.

T1 sequence (P43220 24-463 L260F): as the sequence (P43220 24-463) above, with L237F counted along it

Structure (SMILES) | EC50 [1] [nM] | EC50 [2] [nM]
Cc1nccn1CCn1c(CN2CCN(c3cccc(OCc4ccc(Cl)cc4F)n3)[C@@H]3COC[C@@H]32)nc2ccc(C(=O)O)cc21 (single isomer, unassigned) [Example 25a] | 110 | 170
Cc1cc(Cn2c(CN3CCN(c4cccc(OCc5ccc(C#N)cc5F)n4)[C@@H]4CC[C@@H]43)nc3ccc(C(=O)O)cc32)no1 (racemic) [Example 13, rac-2-(((1R,6S)-5-(6-((4-Cyano-2-fluorobenzyl)oxy)pyridin-2-yl)-2,5-diazabicyclo[4.2.0]octan-2-yl)methyl)-1-((5-methylisoxazol-3-yl)methyl)-1H-benzo[d]imidazole-6-carboxylic acid] | 110 | 100
O=C(O)c1cc(F)c2nc(CN3CCN(c4cccc(OCc5ccc(Cl)cc5F)n4)[C@@H]4COC[C@@H]43)n(C[C@@H]3CCO3)c2c1 (single isomer, unassigned) [Example 19b, 2-(((4aR*,7aS*)-4-(6-((4-Chloro-2-fluorobenzyl)oxy)pyridin-2-yl)hexahydrofuro[3,4-b]pyrazin-1(2H)-yl)methyl)-4-fluoro-1-(((S)-oxetan-2-yl)methyl)-1H-benzo[d]imidazole-6-carboxylic acid] | 120 | 290
Cc1nccn1CCn1c(CN2CCN(c3cccc(OCc4ccc(Cl)cc4F)n3)[C@@H]3COC[C@@H]32)nc2c(F)cc(C(=O)O)cc21 (single isomer, unassigned) [Example 23] | 170 | 110
O=C(O)c1cc(Cl)c2nc(CN3CCN(c4cccc(OCc5ccc(Cl)cc5F)n4)[C@@H]4COC[C@@H]43)n(C[C@@H]3CCO3)c2c1 (single isomer, unassigned) [Example 22b, 4-Chloro-2-(((4aR*,7aS*)-4-(6-((4-chloro-2-fluorobenzyl)oxy)pyridin-2-yl)hexahydrofuro[3,4-b]pyrazin-1(2H)-yl)methyl)-1-(((S)-oxetan-2-yl)methyl)-1H-benzo[d]imidazole-6-carboxylic acid] | 150 | 270
N#Cc1ccc(COc2cccc(N3CCN(Cc4nc5ccc(C(=O)O)c(Cl)c5n4C[C@@H]4CCO4)[C@H]4CC[C@H]43)n2)c(F)c1 (single isomer, unassigned) [Example 8c] | 140 | 620
Cn1ccc(Cn2c(CN3CCN(c4cccc(OCc5ccc(C#N)cc5F)n4)[C@@H]4CC[C@@H]43)nc3ccc(C(=O)O)cc32)n1 (racemic) [Example 1, rac-2-(((1R,6S)-5-(6-((4-Cyano-2-fluorobenzyl)oxy)pyridin-2-yl)-2,5-diazabicyclo[4.2.0]octan-2-yl)methyl)-1-((1-methyl-1H-pyrazol-3-yl)methyl)-1H-benzo[d]imidazole-6-carboxylic acid] | 130 | 280

Now those with a lower EC50 [1], led by results:

EC50 [1] [nM] | EC50 [2] [nM] | Structure (SMILES)
1 | 6.6 | O=C(O)c1cc(Cl)c2nc(CN3CCN(c4cccc(OCc5ccc(Cl)cc5F)n4)[C@@H]4COC[C@@H]43)n(C[C@@H]3CCO3)c2c1 (single isomer, unassigned) [Example 22a, 4-Chloro-2-(((4aR*,7aS*)-4-(6-((4-chloro-2-fluorobenzyl)oxy)pyridin-2-yl)hexahydrofuro[3,4-b]pyrazin-1(2H)-yl)methyl)-1-(((S)-oxetan-2-yl)methyl)-1H-benzo[d]imidazole-6-carboxylic acid]
64 | 120 | COc1cc(C(=O)O)cc2c1nc(CN1CCN(c3cccc(OCc4ccc(Cl)cc4F)n3)[C@@H]3COC[C@@H]31)n2C[C@@H]1CCO1 (single isomer, unassigned) [Example 16b, 2-(((4aR*,7aS*)-4-(6-((4-Chloro-2-fluorobenzyl)oxy)pyridin-2-yl)hexahydrofuro[3,4-b]pyrazin-1(2H)-yl)methyl)-4-methoxy-1-(((S)-oxetan-2-yl)methyl)-1H-benzo[d]imidazole-6-carboxylic acid]
90 | 40 | N#Cc1ccc(COc2cccc(N3CCN(Cc4nc5cc(Cl)c(C(=O)O)cc5n4C[C@@H]4CCO4)[C@H]4CC[C@H]43)n2)c(F)c1 (single isomer, unassigned) [Example 7b]
74 | 71 | O=C(O)c1ccc2nc(CN3CCN(c4cccc(OCc5ccc(Cl)cc5F)n4)[C@@H]4COC[C@@H]43)n(Cc3cccnc3)c2c1 (single isomer, unassigned) [Example 21]
95 | 57 | N#Cc1ccc(COc2cccc(N3CCN(Cc4nc5c(Cl)cc(C(=O)O)cc5n4C[C@@H]4CCO4)[C@H]4CC[C@H]43)n2)c(F)c1 (single isomer, unassigned) [Example 6b]
23 | 13 | N#Cc1ccc(COc2cccc(N3CCN(Cc4nc5c(F)cc(C(=O)O)cc5n4C[C@@H]4CCO4)[C@H]4CC[C@@H]43)n2)c(F)c1 (single isomer, unassigned) [Example 3a, 2-(((1R*,6R*)-5-(6-((4-Cyano-2-fluorobenzyl)oxy)pyridin-2-yl)-2,5-diazabicyclo[4.2.0]octan-2-yl)methyl)-4-fluoro-1-(((S)-oxetan-2-yl)methyl)-1H-benzo[d]imidazole-6-carboxylic acid]
